# Measurements from patent publication US8969390B2, “Composition containing sorbitan monocaprylate and antimicrobial substances” (Clariant Finance (BVI) Limited, priority 2009, dated 2015).
# Tests used:
# Aspergillus brasiliensis = experiment: Challenge test according to Ph. Eur. Chapter 5.1.3, Aspergillus brasiliensis; format: cell-based; conditions: formulation B (shampoo), use concentration 0.05% piroctone olamine
# Method: (§1) The following examples show results of challenge tests that were carried out according to the requirements of Ph. Eur. Chapter 5.1.3. The following test organisms are used here as representatives for microorganisms: Pseudomonas aeruginosa (gram-negative; abbreviated below as “P. a.”), Staphylococcus aureus (gram-positive; abbreviated below as “St. a.”), Candida albicans (yeast fungus; abbreviated below as “C. a.”) and Aspergillus brasiliensis (mold fungus; abbreviated below as “A. b.”). In a challenge test, a cosmetic, dermatological or pharmaceutical formulation is accurately considered as adequately preserved if all four test organisms are passed at least with a B criterion. An A criterion means an outstanding preservation, a B criterion, means an adequate preservation and with an F criterion the test is considered overall as not passed. As a comparison, an unpreserved sample of the respective formulation is additionally tested. The further abbreviations SC=sorbitan monocaprylate, Octopirox®=piroctone olamine apply below.
# (§2) The assignment of the A, B and F criteria is directed by the level of the microorganism count reduction within a fixed time interval, in which only the logarithmic reduction is considered.
# [1] = test system: Pseudomonas aeruginosa, Staphylococcus aureus, Candida albicans and Aspergillus brasiliensis; experiment: Challenge test according to Ph. Eur. Chapter 5.1.3, overall preservation (all test organisms); format: cell-based; conditions: formulation A (cream)
# Method: as §1, §2
Structure (SMILES),protection of formulation B against growth of mold fungi (Aspergillus brasiliensis),adequate preservation of formulation A ([1]; use concentration 0.05% piroctone olamine),adequate preservation of formulation A ([1]; 0.4% benzoic acid as individual antimicrobial active ingredient)
"Cc1cc(CC(C)CC(C)(C)C)n(O)c(=O)c1.NCCO (stereo not drawn) [Octopirox ®, piroctone olamine]",cannot adequately protect,cannot be preserved adequately,–
"O=C(O)c1ccccc1 [Benzoic acid, benzoic acid, reference compound]",–,–,does not suffice
